This passage reports LD50 results from the CATMoS acute toxicity set (Mansouri et al. 2021).

The data set is described as follows: rat acute oral toxicity. Particulars: in vivo.

The LD50 is the dose at which mortality reaches 50%. High values mean lower toxicity, low ones greater toxicity. In the case of `CCCSP(=S)(OCC)Oc1ccc(SC)cc1` (centres undefined), the LD50 was 65 mg/kg.
As for `CC1(C)OC[C@@H]2O[C@@]3(C(=O)O)OC(C)(C)O[C@H]3[C@@H]2O1`, the LD50 came to 18000 mg/kg.
`O=Cc1ccc(-c2ccccc2)cc1`: the LD50 is 1000 mg/kg.
Then `COc1ccc(O)c(C(C)(C)C)c1`, with 2910 mg/kg; and `CCOC(=O)CC(=O)C(F)(F)F`, with 765 mg/kg.
In the case of `CCN(CC)c1nc(C)cc(OP(=S)(OC)OC)n1` it was 1250 mg/kg.
Then `Clc1cc2c(cc1Cl)Oc1cc(Cl)c(Cl)cc1O2`, with 0.02 mg/kg; and `O=[N+]([O-])c1ccc(O)c([N+](=O)[O-])c1`, with 30 mg/kg.
Compound `COCCOC(C)=O` showed an LD50 of 1250 mg/kg.
In the case of `Cc1[nH]c(=O)n(C(C)(C)C)c(=O)c1Cl` it was 1700 mg/kg; in that of `Nc1ncnc2c1ncn2C1CC(O)C(COP(=O)(O)OP(=O)(O)OP(=O)(O)O)O1` (centres undefined), 6770 mg/kg.
In the case of `CC(O)C#N` (centres undefined) it was 21 mg/kg.
In the case of `CC(=O)C(Cl)C(=O)N(C)C` (centres undefined) it was 275 mg/kg; in that of `CC(C)(c1ccc(O)cc1)c1ccc(O)cc1`, 3250 mg/kg; in that of `COCCOCCOCCO`, 11300 mg/kg.
On to `CCOC=O`, for which the LD50 turned out to be 1850 mg/kg.
Then `CCCOC(C)=O`, with 9370 mg/kg; and `CN=C=O`, with 51.5 mg/kg; and `c1ccc(Nc2ccccc2)cc1`, with 1120 mg/kg.
Then `C#CCN1CC(=O)N(COC(=O)[C@@H]2[C@@H](C=C(C)C)C2(C)C)C1=O`, with 900 mg/kg; and `N[C@@H](Cc1ccc(N(CCCl)CCCl)cc1)C(=O)O`, with 11.2 mg/kg; and `Cc1cccc(Nc2cc(Cl)nc(SCC(=O)O)n2)c1C`, with 1050 mg/kg.
Then `OCCc1ccccn1`, with 3840 mg/kg.
For `CC1(C)[C@H]2[C@H](O)OC(=O)[C@H]21`, the LD50 is 200 mg/kg.
Then `O=C(O)C=CC(=O)O`, with 708 mg/kg.
In the case of `COP(=S)(OC)Oc1nc(Cl)c(Cl)cc1Cl` it was 1500 mg/kg; in that of `CCOP(=O)(O)C(N)=O`, 2080 mg/kg; in that of `CN(C)S(=O)(=O)Cl`, 1220 mg/kg.
In the case of `O=C1OC(=O)c2ccccc21` it was 1530 mg/kg; in that of `COC(=O)C(C)Oc1ccc(Oc2ccc(Cl)cc2Cl)cc1` (centres undefined), 481 mg/kg; in that of `CC=C1CC2CC1C1C3C=CC(C3)C21` (centres undefined), 666 mg/kg.
Take `CCOP(=O)(N=C1SCC(C)S1)OCC` (centres undefined): the LD50 was 8.9 mg/kg.
In the case of `CNC(=O)Oc1cc(C)cc(C)c1` it was 245 mg/kg; in that of `ClC1=C(Cl)[C@]2(Cl)[C@@H]3[C@@H]4C[C@@H]([C@H]5O[C@@H]45)[C@@H]3[C@@]1(Cl)C2(Cl)Cl` (single isomer, unassigned), 24 mg/kg.
`NCCCCCCN` had an LD50 of 750 mg/kg.
In the case of `Nc1cccc([N+](=O)[O-])c1` it was 535 mg/kg; in that of `O=S(=O)(O)CCCS`, 3720 mg/kg; in that of `CCOc1ccc2c(c1)C(C)=CC(C)(C)N2`, 800 mg/kg.
As for `C=Cc1ccccc1`, the 50% lethal dose (LD50) worked out at 1000 mg/kg.
`CN(C)C` returned an LD50 of 460 mg/kg.
Then `COc1ccc(Cc2nccc3cc(OC)c(OC)cc23)cc1OC`, with 325 mg/kg.
With `Nc1ccc(Nc2ccccc2)cc1`, the LD50 is 464 mg/kg.
In the case of `CCCCC(CC)COP(Oc1ccccc1)Oc1ccccc1` (centres undefined) it was 3840 mg/kg.
In the case of `Cc1ccccc1NC(=N)Nc1ccccc1C` it was 70.7 mg/kg; in that of `COP(=S)(OC)Oc1cc(Cl)c(Br)cc1Cl`, 1600 mg/kg.
For the compound `CCCC=C(C=O)CC`, the median lethal dose (LD50) amounted to 3000 mg/kg.
Then `O=C(O)c1cccnc1`, with 4500 mg/kg; and `CCCCN(CC)C(=O)SCCC`, with 921 mg/kg; and `NC(=O)/C(=C\c1ccc([N+](=O)[O-])o1)c1ccco1`, with 340 mg/kg.
Compound `CC(C)CC(C)O` (centres undefined) returned an LD50 of 2590 mg/kg.
Compound `CC(C)NC(C)C` registered an LD50 of 310 mg/kg.
Compound `C=C(C)[C@H]1Cc2c(ccc3c2O[C@@H]2COc4cc(OC)c(OC)cc4[C@@H]2C3=O)O1` yielded an LD50 of 25 mg/kg.
Consider `CC(=O)O[Si](C)(OC(C)=O)OC(C)=O`, for which the LD50 turned out to be 1550 mg/kg.
`CCCCCCCCCC[N+](C)(C)CCCCCCCCCC` showed an LD50 of 84 mg/kg.
In the case of `CNC(=O)CC#N` it was 387 mg/kg; in that of `CC(C)C(C(=O)OC(C#N)c1cccc(Oc2ccccc2)c1)c1ccc(Cl)cc1` (centres undefined), 135 mg/kg; in that of `NC(=O)NCc1ccccc1`, 2700 mg/kg.
In the case of `Clc1ccc(-c2ccc(Cl)c(Cl)c2Cl)c(Cl)c1Cl` it was 1300 mg/kg.
In the case of `O=[N+]([O-])c1ccc(Cl)c(Cl)c1`, the 50% lethal dose (LD50) stood at 625 mg/kg.
In the case of `CC(C)COC(=O)CC(C(=O)OCC(C)C)S(=O)(=O)O` (centres undefined) it was 2770 mg/kg; in that of `OCC(CO)(CBr)CBr`, 1880 mg/kg; in that of `C#CC(C)(C)O`, 1420 mg/kg.
Then `CC(=O)C(C)C`, with 148 mg/kg; and `OCCN1CN(CCO)CN(CCO)C1`, with 763 mg/kg; and `CCCCN=C=O`, with 360 mg/kg.
Then `O=C1NC(=O)C(c2ccccc2)(c2ccccc2)N1`, with 250 mg/kg.
Take `ClC(Cl)(Cl)Cl`: the LD50 amounted to 2350 mg/kg.
For the compound `NC(N)=S`, the LD50 turned out to be 20 mg/kg.
In the case of `C[N+](C)(C)CCO` it was 3400 mg/kg; in that of `C=CCBr`, 120 mg/kg; in that of `CC(C)[C@H](C(=O)O[C@H](C#N)c1cccc(Oc2ccccc2)c1)c1ccc(Cl)cc1`, 88 mg/kg.
Then `CCc1cccc(CC)c1N`, with 1800 mg/kg; and `C=COC(C)=O`, with 2900 mg/kg; and `CC(C)CN`, with 224 mg/kg.
Take `CNC(=O)ON=CC(C)(C)SC`: the LD50 is 0.5 mg/kg.
`OCc1ccco1`: the 50% lethal dose (LD50) turned out to be 177 mg/kg.
In the case of `C=CCCl` it was 284 mg/kg; in that of `ClSC(Cl)(Cl)Cl`, 82.6 mg/kg.
In the case of `O=P(OC(CCl)CCl)(OC(CCl)CCl)OC(CCl)CCl` it was 1850 mg/kg; in that of `CCCC1COC(Cn2cncn2)(c2ccc(Cl)cc2Cl)O1` (centres undefined), 1500 mg/kg.
In the case of `CC(=O)CC(C)=O` it was 570 mg/kg; in that of `O=C1CCC(=O)O1`, 1510 mg/kg; in that of `COC(=O)Nc1ccc(Cl)c(Cl)c1`, 522 mg/kg.
Turning to `CCOC(=O)C1(c2ccccc2)CCN(C)CC1`, the LD50 amounted to 162 mg/kg.
Then `CCN(CC)C(=S)S`, with 1500 mg/kg.
`CC(=O)CC(=O)Nc1ccccc1C`: the LD50 was 1020 mg/kg.
`CCSC(=O)N(CC(C)C)CC(C)C` registered an LD50 of 4000 mg/kg.
In the case of `Cc1ccc(S(N)(=O)=O)cc1` it was 2330 mg/kg; in that of `CC1=NNC(=O)N(/N=C/c2cccnc2)C1`, 5690 mg/kg; in that of `CC1OC(C)OC(C)OC(C)O1` (centres undefined), 227 mg/kg.
Then `CC1(C)C(C=C(Br)Br)C1C(=O)OC(C#N)c1cccc(Oc2ccccc2)c1` (centres undefined), with 40.5 mg/kg.
In the case of `O=C(Nc1ccc(Cl)c(Cl)c1)C1CC1` it was 215 mg/kg.
The compound `CCOP(=S)(OCC)Oc1ccc([N+](=O)[O-])cc1` came in with an LD50 of 2.1 mg/kg.
In the case of `CC(=O)CC(c1ccccc1)c1c(O)c2ccccc2oc1=O` (centres undefined) it was 1.6 mg/kg.
The compound `C=CCCC` registered an LD50 of 4600 mg/kg.
In the case of `O=C1C=CC(=O)O1` it was 318 mg/kg; in that of `CCCCOP(=O)(OCCCC)Oc1ccccc1`, 2140 mg/kg.
With `Cc1nnc(-c2ccccc2)c(=O)n1N`, the 50% lethal dose (LD50) stood at 1180 mg/kg.
Consider `CC(C)CC=O`, for which the LD50 was determined as 5600 mg/kg.
In turn, `CCOP(=O)(SC(C)CC)SC(C)CC` (centres undefined) displayed a 50% lethal dose (LD50) of 37.1 mg/kg.
In the case of `COc1ccc(C(=O)c2ccccc2)c(O)c1` it was 7400 mg/kg; in that of `CCCC(C)c1cccc(OC(=O)NC)c1` (centres undefined), 50 mg/kg; in that of `CC(=O)CC(C)C`, 2080 mg/kg.
Then `CC(C1CC1)C(O)(Cn1cncn1)c1ccc(Cl)cc1` (centres undefined), with 350 mg/kg; and `Cn1cnc2c1c(=O)[nH]c(=O)n2C`, with 950 mg/kg.
`CC(C)(C)c1ccc(C(O)CCCN2CCC(C(O)(c3ccccc3)c3ccccc3)CC2)cc1` (centres undefined) returned an LD50 of 438 mg/kg.
Then `O=c1nc(O)n(Cl)c(=O)n1Cl`, with 1670 mg/kg; and `CCCCCCCO`, with 500 mg/kg.
In the case of `C=CC(=O)OCC1CO1` (centres undefined) it was 150 mg/kg.
Take `O=C(CS)OC(CO)CO`: the LD50 stood at 172 mg/kg.
In the case of `NC(=O)c1c(F)cccc1F` it was 1080 mg/kg; in that of `Clc1cccc(Cl)c1Cl`, 756 mg/kg; in that of `CCOCCOC(C)=O`, 2700 mg/kg.
Take `N#CC(Cl)Cl`: the LD50 worked out at 330 mg/kg.
`Cc1cc(Cl)ccc1OCCCC(=O)O` yielded an LD50 of 680 mg/kg.
Then `Cc1c(N)cccc1N`, with 1000 mg/kg; and `O=c1oc2ccccc2c(O)c1C1CC(c2ccc(-c3ccccc3)cc2)Cc2ccccc21` (centres undefined), with 0.925 mg/kg.
In the case of `N#CC(Br)Br` it was 245 mg/kg; in that of `CCN(CC)N=O`, 220 mg/kg.
Consider `CCOC(=O)C(SP(=S)(OC)OC)c1ccccc1` (centres undefined), for which the LD50 stood at 71 mg/kg.
Compound `NC1CCCCC1N` (centres undefined) registered an LD50 of 1170 mg/kg.
`C1CCC2CCCCC2C1` (centres undefined) displayed an LD50 of 4170 mg/kg.
In the case of `CCCC(=O)O` it was 1630 mg/kg.
Take `CC(=O)CC(=O)Nc1ccccc1Cl`: the LD50 came out at 4040 mg/kg.
Then `CC(O)CCO` (centres undefined), with 18600 mg/kg; and `C1CNCCN1`, with 1980 mg/kg; and `COc1ccc(C(CN)C2(O)CCCCC2)cc1` (centres undefined), with 200 mg/kg.
In the case of `COP(=O)(OC)C(O)C(Cl)(Cl)Cl` (centres undefined) it was 154 mg/kg.
In the case of `Cc1cccc(N)c1C` it was 930 mg/kg; in that of `CSc1ccc(C(=O)C(C)(C)N2CCOCC2)cc1`, 1460 mg/kg; in that of `Cc1cc(C)cc(N)c1`, 707 mg/kg.
In turn, `CNN` showed an LD50 of 32 mg/kg.
Then `CC(COCC(C)OC(=O)c1ccccc1)OC(=O)c1ccccc1` (centres undefined), with 3300 mg/kg; and `NCC1CCCC(CN)C1` (centres undefined), with 880 mg/kg; and `CCC12COCN1COC2`, with 3670 mg/kg.
Then `ClC=C(Cl)Cl`, with 4920 mg/kg; and `CC(Cl)(Cl)C(=O)O`, with 6940 mg/kg; and `Clc1cccc(Cl)c1C(Cl)Cl`, with 1300 mg/kg.
`CCCC1CO1` (centres undefined) yielded an LD50 of 1330 mg/kg.
Compound `Cc1ccc(C)cc1` registered an LD50 of 3520 mg/kg.
In the case of `CCCCN` it was 366 mg/kg; in that of `C1CC2OC2CC1C1CO1` (centres undefined), 2130 mg/kg; in that of `CCNc1ccccc1`, 334 mg/kg.
`C=CC(C)(CCC=C(C)C)OC(C)=O` (centres undefined): the LD50 amounted to 13900 mg/kg.
